Target: T1, human NK3 receptor (Homo sapiens, UniProt P29371)
T1 construct: expressed in transfected cells; host or cells: HEK293 cells (transient expression), membrane preparation
T1 sequence (P29371 1-465): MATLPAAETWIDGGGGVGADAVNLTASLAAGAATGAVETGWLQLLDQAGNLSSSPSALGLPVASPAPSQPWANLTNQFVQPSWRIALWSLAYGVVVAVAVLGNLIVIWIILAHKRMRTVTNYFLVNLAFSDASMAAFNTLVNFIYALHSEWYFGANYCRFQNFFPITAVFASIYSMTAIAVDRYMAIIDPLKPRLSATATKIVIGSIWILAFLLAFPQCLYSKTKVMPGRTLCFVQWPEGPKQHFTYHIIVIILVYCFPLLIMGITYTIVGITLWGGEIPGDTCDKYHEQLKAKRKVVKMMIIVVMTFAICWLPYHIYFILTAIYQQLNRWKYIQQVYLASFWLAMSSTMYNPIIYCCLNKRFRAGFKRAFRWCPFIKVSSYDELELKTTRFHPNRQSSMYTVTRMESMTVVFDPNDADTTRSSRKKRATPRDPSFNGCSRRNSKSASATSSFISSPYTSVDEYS
Assay: [3H]SR142801 competition binding assay
Conditions: hNK3 receptor binding, [3H]SR142801, membranes from HEK293 cells transiently expressing recombinant human NK3 receptor
Method: [^3H]SR142801 Competition Binding Assay
hNK3 receptor binding experiment were performed using [^3H]SR142801 (Catalog No. TRK1035, specific activity: 74.0 Ci/mmol, Amersham, GE Healthcare UK limited, Buckinghamshire, UK) and membrane isolated from HEK293 cells transiently expressing recombinant human NK3 receptor. After thawing, the membrane homogenates were centrifuged at 48,000×g for 10 min at 4° C., the pellets were resuspended in the 50 mM Tris-HCl, 4 mM MnCl2, 1 μM phosphoramidon, 0.1% BSA binding buffer at pH 7.4 to a final assay concentration of 5 μg protein/well. For inhibition experiments, membranes were incubated with [^3H]SR142801 at a concentration equal to KD value of radioligand and 10 concentrations of the inhibitory compound (0.0003-10 μM) (in a total reaction volume of 500 μl) for 75 min at room temperature (RT). At the end of the incubation, membranes were filtered onto unitfilter (96-well white microplate with bonded GF/C filter preincubated 1 h in 0.3% PEI+0.3% BSA, Packard BioScience, Meriden, Conn.) with a Filtermate 196 harvester (Packard BioScience) and washed 4 times with ice-cold 50 mM Tris-HCl, pH 7.4 buffer. Nonspecific binding was measured in the presence of 10 μM SB222200 for both radioligands. The radioactivity on the filter was counted (5 min) on a Packard Top-count microplate scintillation counter with quenching correction after addition of 45 μl of microscint 40 (Canberra Packard S. A., Zürich, Switzerland) and shaking for 1 h. Inhibition curves were fitted according to the Hill equation: y=100/(1+(x/IC50)^nH), where nH=slope factor using Excel-fit 4 software (Microsoft). IC50 values were derived from the inhibition curve and the affinity constant (Ki) values were calculated using the Cheng-Prussoff equation Ki=IC50/(1+[L]/KD) where [L] is the concentration of radioligand and KD is its dissociation constant at the receptor, derived from the saturation isotherm. All experiments were performed in duplicate and the mean±standard error (SEM) of the individual Ki values was calculated.

| SMILES | Ki [nM] |
| --- | --- |
| CN(Cc1ccc2c(c1)OCC2)[C@H]1CN(C(=O)N2CCN(S(C)(=O)=O)CC2)C[C@@H]1c1ccc(Cl)c(Cl)c1 (racemic) [Example 37, {(3SR,4RS)-3-(3,4-Dichloro-phenyl)-4-[(2,3-dihydro-benzofuran-6-ylmethyl)-methyl-amino]-pyrrolidin-1-yl}-(4-methanesulfonyl-piperazin-1-yl)-methanone] | 76.2 |
| Cc1cc(CN(C)[C@H]2CN(C(=O)N3CCN(S(C)(=O)=O)CC3)C[C@@H]2c2ccc(Cl)c(Cl)c2)ccc1F (racemic) [Example 43, {(3SR,4RS)-3-(3,4-Dichloro-phenyl)-4-[(4-fluoro-3-methyl-benzyl)-methyl-amino]-pyrrolidin-1-yl}-(4-methanesulfonyl-piperazin-1-yl)-methanone] | 84.9 |
| CN(Cc1ccc2cc[nH]c2c1)[C@H]1CN(C(=O)N2CCN(S(C)(=O)=O)CC2)C[C@@H]1c1ccc(Cl)c(Cl)c1 (racemic) [Example 47, {(3SR,4RS)-3-(3,4-Dichloro-phenyl)-4-[(1H-indol-6-ylmethyl)-methyl-amino]-pyrrolidin-1-yl}-(4-methanesulfonyl-piperazin-1-yl)-methanone] | 69.1 |
| CC(=O)N1CCN(C(=O)N2C[C@H](c3ccc(Cl)c(Cl)c3)[C@@H](N(C)Cc3ccc(C(F)(F)F)c(F)c3)C2)CC1 (racemic) [Example 51, 1-(4-{(3SR,4RS)-3-(3,4-Dichloro-phenyl)-4-[(3-fluoro-4-trifluoromethyl-benzyl)-methyl-amino]-pyrrolidine-1-carbonyl}-piperazin-1-yl)-ethanone] | 17.3 |
| CN(Cc1ccc(C(F)(F)F)c(F)c1)[C@H]1CN(C(=O)N2CCOCC2)C[C@@H]1c1ccc(Cl)c(Cl)c1 (racemic) [Example 52, {(3SR,4RS)-3-(3,4-Dichloro-phenyl)-4-[(3-fluoro-4-trifluoromethyl-benzyl)-methyl-amino]-pyrrolidin-1-yl}-morpholin-4-yl-methanone] | 71.3 |
| CN(Cc1ccc(C#N)c(F)c1)[C@H]1CN(C(=O)N2CCN(S(C)(=O)=O)CC2)C[C@@H]1c1ccc(Cl)c(Cl)c1 (racemic) [Example 56, 4-({[(3RS,4SR)-4-(3,4-Dichloro-phenyl)-1-(4-methanesulfonyl-piperazine-1-carbonyl)-pyrrolidin-3-yl]-methyl-amino}-methyl)-2-fluoro-benzonitrile] | 22 |
| CN(Cc1ccc(C(F)(F)F)c(F)c1)[C@H]1CN(C(=O)CCCCN2CCOCC2)C[C@@H]1c1ccc(Cl)c(Cl)c1 (racemic) [Example 62, 1-{(3SR,4RS)-3-(3,4-Dichloro-phenyl)-4-[(3-fluoro-4-trifluoromethyl-benzyl)-methyl-amino]-pyrrolidin-1-yl}-5-morpholin-4-yl-pentan-1-one] | 11 |
| CN(Cc1ccc(C(F)(F)F)c(F)c1)[C@H]1CN(C(=O)N2CCN(c3ncccn3)CC2)C[C@@H]1c1ccc(Cl)c(Cl)c1 (racemic) [Example 63, {(3SR,4RS)-3-(3,4-Dichloro-phenyl)-4-[(3-fluoro-4-trifluoromethyl-benzyl)-methyl-amino]-pyrrolidin-1-yl}-(4-pyrimidin-2-yl-piperazin-1-yl)-methanone] | 8.6 |
| COc1ccc(N2CCN(C(=O)N3C[C@H](c4ccc(Cl)c(Cl)c4)[C@@H](N(C)Cc4ccc(C(F)(F)F)c(F)c4)C3)CC2)cc1 (racemic) [Example 64, {(3SR,4RS)-3-(3,4-Dichloro-phenyl)-4-[(3-fluoro-4-trifluoromethyl-benzyl)-methyl-amino]-pyrrolidin-1-yl}-[4-(4-methoxy-phenyl)-piperazin-1-yl]-methanone] | 2.8 |
| CN(Cc1ccc(C(F)(F)F)c(F)c1)[C@H]1CN(C(=O)N2CCN(c3ccccn3)CC2)C[C@@H]1c1ccc(Cl)c(Cl)c1 (racemic) [Example 65, {(3SR,4RS)-3-(3,4-Dichloro-phenyl)-4-[(3-fluoro-4-trifluoromethyl-benzyl)-methyl-amino]-pyrrolidin-1-yl}-(4-pyridin-2-yl-piperazin-1-yl)-methanone] | 4.1 |
| CN(Cc1ccc(C(F)(F)F)c(F)c1)[C@H]1CN(C(=O)N2CCN(CCCO)CC2)C[C@@H]1c1ccc(Cl)c(Cl)c1 (racemic) [Example 66, {(3SR,4RS)-3-(3,4-Dichloro-phenyl)-4-[(3-fluoro-4-trifluoromethyl-benzyl)-methyl-amino]-pyrrolidin-1-yl}-[4-(3-hydroxy-propyl)-piperazin-1-yl]-methanone] | 3 |
| CN(Cc1ccc(C(F)(F)F)c(F)c1)[C@H]1CN(C(=O)N2CCN(CCO)CC2)C[C@@H]1c1ccc(Cl)c(Cl)c1 (racemic) [Example 67, {(3SR,4RS)-3-(3,4-Dichloro-phenyl)-4-[(3-fluoro-4-trifluoromethyl-benzyl)-methyl-amino]-pyrrolidin-1-yl}-[4-(2-hydroxy-ethyl)-piperazin-1-yl]-methanone] | 6.2 |
| CN(Cc1ccc(C(F)(F)F)c(F)c1)[C@H]1CN(C(=O)N2CCN(c3ccncc3)CC2)C[C@@H]1c1ccc(Cl)c(Cl)c1 (racemic) [Example 68, {(3SR,4RS)-3-(3,4-Dichloro-phenyl)-4-[(3-fluoro-4-trifluoromethyl-benzyl)-methyl-amino]-pyrrolidin-1-yl}-(4-pyridin-4-yl-piperazin-1-yl)-methanone] | 5.9 |
| CN(Cc1ccc(C(F)(F)F)c(F)c1)[C@H]1CN(C(=O)N2CCN(c3cnccn3)CC2)C[C@@H]1c1ccc(Cl)c(Cl)c1 (racemic) [Example 69, {(3SR,4RS)-3-(3,4-Dichloro-phenyl)-4-[(3-fluoro-4-trifluoromethyl-benzyl)-methyl-amino]-pyrrolidin-1-yl}-(2,3,5,6-tetrahydro-[1,2′]bipyrazinyl-4-yl)-methanone] | 4.7 |
| CN(Cc1ccc(C(F)(F)F)c(F)c1)[C@H]1CN(C(=O)N2CCN(c3ccccc3C#N)CC2)C[C@@H]1c1ccc(Cl)c(Cl)c1 (racemic) [Example 70, 2-(4-{(3SR,4RS)-3-(3,4-Dichloro-phenyl)-4-[(3-fluoro-4-trifluoromethyl-benzyl)-methyl-amino]-pyrrolidine-1-carbonyl}-piperazin-1-yl)-benzonitrile] | 10.5 |
| CN(Cc1ccc(C(F)(F)F)c(F)c1)[C@H]1CN(C(=O)N2CCN(c3ccc(C#N)cc3)CC2)C[C@@H]1c1ccc(Cl)c(Cl)c1 (racemic) [Example 72, 4-(4-{(3SR,4RS)-3-(3,4-Dichloro-phenyl)-4-[(3-fluoro-4-trifluoromethyl-benzyl)-methyl-amino]-pyrrolidine-1-carbonyl}-piperazin-1-yl)-benzonitrile] | 2.7 |
| CN(Cc1ccc(C(F)(F)F)c(F)c1)[C@H]1CN(C(=O)N2CCN(c3ccc(C#N)cn3)CC2)C[C@@H]1c1ccc(Cl)c(Cl)c1 (racemic) [Example 73, 6-(4-{(3SR,4RS)-3-(3,4-Dichloro-phenyl)-4-[(3-fluoro-4-trifluoromethyl-benzyl)-methyl-amino]-pyrrolidine-1-carbonyl}-piperazin-1-yl)-nicotinonitrile] | 1.9 |
| CN(C)CCCN1CCN(C(=O)N2C[C@H](c3ccc(Cl)c(Cl)c3)[C@@H](N(C)Cc3ccc(C(F)(F)F)c(F)c3)C2)CC1 (racemic) [Example 74, {(3SR,4RS)-3-(3,4-Dichloro-phenyl)-4-[(3-fluoro-4-trifluoromethyl-benzyl)-methyl-amino]-pyrrolidin-1-yl}-[4-(3-dimethylamino-propyl)-piperazin-1-yl]-methanone] | 5.4 |
| CN(C)CCN1CCN(C(=O)N2C[C@H](c3ccc(Cl)c(Cl)c3)[C@@H](N(C)Cc3ccc(C(F)(F)F)c(F)c3)C2)CC1 (racemic) [Example 75, {(3SR,4RS)-3-(3,4-Dichloro-phenyl)-4-[(3-fluoro-4-trifluoromethyl-benzyl)-methyl-amino]-pyrrolidin-1-yl}-[4-(2-dimethylamino-ethyl)-piperazin-1-yl]-methanone] | 4.6 |
